What was measured:
phosphorylated ERK = assay: KRAS G12D-mediated phosphorylated ERK inhibition assay (AlphaLISA), A427; type: cell-based; conditions: Homo sapiens, A-427; A427 cells; class symbols; read-out: pERK (A427) IC50
Description: The relative amounts of phosphorylated ERK and total ERK in the samples were separately determined according to the test methods provided in the instructions of the AlphaLISA SureFire Ultra p-ERK 1/2 (Thr202/Tyr204) kit (PerkinElmer) and the AlphaLISA SureFire Ultra TotalERK 1/2 kit (PerkinElmer).
The experimental procedures for the assay of the phosphorylated ERK and total ERK were as follows: 10 μL of each sample was added to a 384-well plate (Greiner), and 5 μL of the prepared Acceptor Beads (PerkinElmer) mixed solution (containing 50× Acceptor Beads 615, Activation Buffer, and equal volumes of Reaction Buffer 1 and Reaction Buffer 2) was added to each well; and the plate was incubated at room temperature for 2 h. Then 5 μL of 1× Donor Beads (PerkinElmer) diluted with Dilution Buffer was added to each well, and the plate was incubated at room temperature overnight. After the incubation was completed, AlphaLISA signal values for the phosphorylated ERK and total ERK were separately measured on an EnVision microplate reader (PerkinElmer) in the AlphaScreen standard mode. The following formula was adopted: phosphorylated ERK correction value=phosphorylated ERK AlphaLISA signal value/total ERK AlphaLISA signal value. The relative ratio of the phosphorylated ERK for each sample was calculated. The percentage inhibition rates of the compounds on the phosphorylated ERK at each concentration were calculated by comparing the relative value of the phosphorylated ERK with that of the DMSO control well. Then non-linear curve fittings for logarithmic concentration-inhibition rate were performed by the GraphPad Prism 8 analysis software, and the IC50 values of the compounds on the inhibition of the phosphorylated ERK were obtained (Table 2).

[1] = target: T1, Human KRAS G12D 6His-tagged (Homo sapiens, UniProt P01116, G12D); assay: KRAS-G12D/GTP binding assay (HTRF); conditions: class symbols
T1 construct: purchased PerkinElmer
T1 sequence (P01116 1-188 isoform P01116-2 G12D): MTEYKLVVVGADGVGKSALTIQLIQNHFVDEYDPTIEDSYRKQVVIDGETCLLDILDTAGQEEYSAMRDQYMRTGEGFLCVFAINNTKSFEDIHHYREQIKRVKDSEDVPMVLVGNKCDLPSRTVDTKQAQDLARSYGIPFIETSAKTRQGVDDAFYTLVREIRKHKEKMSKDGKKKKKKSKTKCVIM
In short: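 Compounds at 0.02-5000 nM final (0.5% DMSO) were tested for blocking GTP Red tracer binding to His-tagged KRAS G12D, detected by Eu-cryptate anti-His antibody after 1 h, 25° C. Inhibition taken from 665/620 nm ratio relative to control, then fitted to give IC50.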

[2] = test system: KRAS G12D mutant human gastric cancer cell AGS; assay: 3D cell proliferation inhibition assay, AGS; type: cell-based; conditions: 168 h, 7 days, CTG, class symbols
In short: (§1)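 Compound dilutions are added to low-adsorption wells, then cells at 5×10^2 cells/well. Final compound range is 10000–0.026 nM, with 0.2% DMSO. After 7 days at 37 °C with 5% CO2, CTG reagent is added and luminescence is read 60 min later. IC50 is fitted from inhibition relative to DMSO and medium controls.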

[3] = test system: KRAS G12D mutant human lung cancer cell A427; assay: 3D cell proliferation inhibition assay, A427; type: cell-based; conditions: A-427, 168 h, A427, 7 days, CTG, class symbols
In short: as §1

| SMILES | IC50 (phosphorylated ERK) [nM] | IC50 [1] [nM] | IC50 [2] [nM] | IC50 [3] [nM] |
| --- | --- | --- | --- | --- |
| C#Cc1c(F)ccc2cc(O)cc(-c3ncc4c(N5CC6CCC(C5)N6)nc(OCC(C)(C)CN5CCN(CC6CCC7(CC6)CCN(C(=O)c6ccc(OC)c(N8CCC(=O)NC8=O)c6)CC7)CC5)nc4c3F)c12 [Example 26, 1-(5-(9-((4-(3-((4-(3,8-diazabicyclo[3.2.1]octan-3-yl)-7-(8-ethynyl-7-fluoro-3-hydroxynaphthalen-1-yl)-8-fluoropyrido[4,3-d]pyrimidin-2-yl)oxy)-2,2-dimethylpropyl)piperazin-1-yl)methyl)-3-azaspiro[5.5]undecane-3-carbonyl)-2-methoxyphenyl)dihydropyrimidine-2,4(1H,3H)-dione] | ≤ 50 | 50 to 100 | 50 to 100 | 50 to 100 |
| C#Cc1c(F)ccc2cc(O)cc(-c3ncc4c(N5CC6CCC(C5)N6)nc(OCC(C)(C)CN5CCN(CCCC6CCN(C(=O)c7ccc(Cl)c(N8CCC(=O)NC8=O)c7)CC6)CC5)nc4c3F)c12 [Example 23, 1-(5-(4-(3-(4-(3-((4-(3,8-diazabicyclo[3.2.1]octan-3-yl)-7-(8-ethynyl-7-fluoro-3-hydroxynaphthalen-1-yl)-8-fluoropyrido[4,3-d]pyrimidin-2-yl)oxy)-2,2-dimethylpropyl)piperazin-1-yl)propyl)piperidine-1-carbonyl)-2-chlorophenyl)dihydropyrimidine-2,4(1H,3H)-dione] | 100 to 500 | ≤ 50 | 50 to 100 | 100 to 500 |
| C#Cc1c(F)ccc2cc(O)cc(-c3ncc4c(N5CC6CCC(C5)N6)nc(OCC5(CN6CCN(CCCC7CCC8(CC7)CCN(C(=O)c7ccc(Cl)c(N9CCC(=O)NC9=O)c7)CC8)CC6)CC5)nc4c3F)c12 [Example 7, 1-(5-(9-(3-(4-((1-(((4-(3,8-diazabicyclo[3.2.1]octan-3-yl)-7-(8-ethynyl-7-fluoro-3-hydroxynaphthalen-1-yl)-8-fluoropyrido[4,3-d]pyrimidin-2-yl)oxy)methyl)cyclopropyl)methyl)piperazin-1-yl)propyl)-3-azaspiro[5.5]undecane-3-carbonyl)-2-chlorophenyl)dihydropyrimidine-2,4(1H,3H)-dione] | ≤ 50 | ≤ 50 | ≤ 50 | ≤ 50 |
| C#Cc1c(F)ccc2cc(O)cc(-c3ncc4c(N5CC6CCC(C5)N6)nc(OCC5(CN6CCC(COCCC7CCN(C(=O)c8ccc(Cl)c(N9CCC(=O)NC9=O)c8)CC7)CC6)CC5)nc4c3F)c12 [Example 21, 1-(5-(4-(2-((1-((1-(((4-(3,8-diazabicyclo[3.2.1]octan-3-yl)-7-(8-ethynyl-7-fluoro-3-hydroxynaphthalen-1-yl)-8-fluoropyrido[4,3-d]pyrimidin-2-yl)oxy)methyl)cyclopropyl)methyl)piperidin-4-yl)methoxy)ethyl)piperidine-1-carbonyl)-2-chlorophenyl)dihydropyrimidine-2,4(1H,3H)-dione] | ≤ 50 | ≤ 50 | ≤ 50 | 100 to 500 |
| C#Cc1c(F)ccc2cc(O)cc(-c3ncc4c(N5CC6CCC(C5)N6)nc(OCC5(CN6CCC(COCC7CCN(C(=O)c8ccc(Cl)c(N9CCC(=O)NC9=O)c8)CC7)CC6)CC5)nc4c3F)c12 [Example 13, 1-(5-(4-(((1-((1-(((4-(3,8-diazabicyclo[3.2.1]octan-3-yl)-7-(8-ethynyl-7-fluoro-3-hydroxynaphthalen-1-yl)-8-fluoropyrido[4,3-d]pyrimidin-2-yl)oxy)methyl)cyclopropyl)methyl)piperidin-4-yl)methoxy)methyl)piperidine-1-carbonyl)-2-chlorophenyl)dihydropyrimidine-2,4(1H,3H)-dione] | ≤ 50 | ≤ 50 | ≤ 50 | 50 to 100 |
| CCc1c(F)ccc2cc(O)cc(-c3ncc4c(N5CC6CCC(C5)N6)nc(OCC5(CN6CCN(CCCC7CCN(C(=O)c8ccc(Cl)c(N9CCC(=O)NC9=O)c8)CC7)CC6)CC5)nc4c3F)c12 [Example 22, 1-(5-(4-(3-(4-((1-(((4-(3,8-diazabicyclo[3.2.1]octan-3-yl)-7-(8-ethyl-7-fluoro-3-hydroxynaphthalen-1-yl)-8-fluoropyrido[4,3-d]pyrimidin-2-yl)oxy)methyl)cyclopropyl)methyl)piperazin-1-yl)propyl)piperidine-1-carbonyl)-2-chlorophenyl)dihydropyrimidine-2,4(1H,3H)-dione] | ≤ 50 | ≤ 50 | ≤ 50 | 50 to 100 |
| C#Cc1c(F)ccc2cc(O)cc(-c3ncc4c(N5CC6CCC(C5)N6)nc(OCC5(CN6CCN(CCCC7CCN(C(=O)c8ccc(OC)c(N9CCC(=O)NC9=O)c8)CC7)CC6)CC5)nc4c3F)c12 [Example 8, 1-(5-(4-(3-(4-((1-(((4-(3,8-diazabicyclo[3.2.1]octan-3-yl)-7-(8-ethynyl-7-fluoro-3-hydroxynaphthalen-1-yl)-8-fluoropyrido[4,3-d]pyrimidin-2-yl)oxy)methyl)cyclopropyl)methyl)piperazin-1-yl)propyl)piperidine-1-carbonyl)-2-methoxyphenyl)dihydropyrimidine-2,4(1H,3H)-dione] | ≤ 50 | ≤ 50 | ≤ 50 | 50 to 100 |
| C#Cc1c(F)ccc2cc(O)cc(-c3ncc4c(N5CC6CCC(C5)N6)nc(OCC5(CN6CCC(CCOCC7CCN(C(=O)c8ccc(Cl)c(N9CCC(=O)NC9=O)c8)CC7)CC6)CC5)nc4c3F)c12 [Example 10] | ≤ 50 | ≤ 50 | ≤ 50 | 100 to 500 |
